Here are results for seven compounds from publication PMC6628379, “Synthesis and Biological Evaluation of Novel Selenyl and Sulfur-L-Dopa Derivatives as Potential Anti-Parkinson’s Disease Agents” (Biomolecules, 2019).

Entries after “also recorded” stand apart in the source; their conditions may differ. Where a name gives a salt, the structure may show the parent alone. Read-outs that look alike come from different tables or passages of the source. Where a SMILES comes first, the peptide text is derived from it. [ ]: non-standard residue; d: D form. dDopa = N[C@H](Cc1ccc(O)c(O)c1)C(=O)O; dSeMet = C[Se]CC[C@@H](N)C(=O)O Some results are limits rather than exact numbers.

Data set [1] is described as follows: Octanol/water partition coefficient (logP o/w). The data set is classed as physicochemical. As to conditions: n-octanol / phosphate buffer pH 7.4, HPLC. The method, then:
The clogP values were calculated using ACD LogP software package, version 4.55 (Advanced Chemistry Development Inc., Toronto, Canada). Octanol/water partition coefficients (logP o/w) were determined by placing 5 mg of SP into 1 mL of anhydrous n-octanol and an equal volume of phosphate buffer pH 7.4. After vigorously shaking, the resulting mixture was allowed to stand until the complete separation of the two phases. Finally, each phase was filtered and analyzed using HPLC [16].

A short description of data set [2]: BBB-PAMPA (parallel artificial membrane permeability). As to conditions: for Classification: PAMPA-BBB class by Pe; for Papp at 16 h: pig, PAMPA-BBB, 16 h at room temperature, pH 7.4, read-out: Pe; for capacity to cross the BBB: BBB-PAMPA. In kind it is in vitro ADME, porcine. The protocol: The blood–brain barrier (BBB)-PAMPA method was used to evaluate the ability of SPs to cross the BBB via passive diffusion. The artificial membrane of each microplate was coated with 5 µL of a porcine polar brain lipid extract mixture (purchased from Avantis Polar Lipids, Alabaster, AL, USA). A total of 150 µL of drug solution was put on the membrane (donor plate) while the bottom plate was filled with 300 µL of buffer solution (acceptor plate). The system was incubated for 16 h at room temperature and then the concentration of the drug in the acceptor plate was evaluated using HPLC. The concentration of the drug at the theoretical equilibrium was determined diluting 500 µM of SP solution with phosphate buffer pH 7.4 and then analyzed using HPLC [18]. Pe (10^−6 cm/s) was calculated as the effective permeability coefficient.
A general note: The PAMPA barrier holds no transporters, so it reflects passive diffusion.

Data set [3] has as its system undifferentiated SH-SY5Y human neuroblastoma cells. Description: MTT cell viability, undifferentiated SH-SY5Y cells. The data set is classed as cell-based.
Data set [4] has as its system differentiated SH-SY5Y human neuroblastoma cells. Description: MTT cell viability, RA/PMA-differentiated SH-SY5Y cells. The data set is classed as cell-based. As to conditions: dopaminergic differentiated cells, 48 h, 100 µM.
Data set [5] has as its system differentiated SH-SY5Y neuroblastoma cells. Description: Nitroblue tetrazolium (NBT) assay. The data set is classed as cell-based, human. The following applies: 1 µM, 24 h incubation. The protocol:
The differentiated SH-SY5Y cells were treated with SP6 and/or LD compounds at 1 µM for 24 h, and then 10^6 cells were harvested, centrifuged for 5 min at 1200 rpm, and resuspended in 1 mL 0.9% NaCl, in which NBT (nitro blue tetrazolium chloride, 1 mg/mL) was dissolved. The cells were incubated for 3 h at 37 °C, centrifuged (10 min at 1200 rpm), resuspended in 1 mL dimethyl sulfoxide, and left for 20 min at 37 °C. Then, cells were plated in a 96 well plate (2 x 10^5 cell/well) and read at 550 nm using a scanning multi-well spectrophotometer (Cary50MPR, Varian).

Data set [6] has as its system differentiated SH-SY5Y human neuroblastoma cells. Description: Intracellular ROS measurement (H2DCFDA assay). The data set is classed as cell-based. As to conditions: 1 µM for 24 h, then 25 µM H2O2; 2.5 and 5 min; vs CTRL + 25 µM H2O2. The protocol:
SHSY-5Y human neuroblastoma cells were plated (2700 cells/well) into special optics 96-well plates (Corning-Costar, New York, USA) and the cells were treated with retinoic acid (RA)/phorbol 12-myristate 13-acetate (PMA) in order to obtain a dopaminergic phenotype. The differentiated cells were treated with SP1-6 at 1 μM for 24 h and then washed with an imaging buffer (125 mM NaCl, 5 mM KCl, 1.2 mM MgSO4, 5 mM glucose, 25 mM HEPES, and 2 mM CaCl2). A concentration of 10 μM of 2',7'-dichlorofluorescin diacetate (H2DCFDA, Molecular probes, Life Technologies REF […]) was added and the plates were incubated at 37 °C for 30 min. After the incubation, cells were washed with an imaging buffer and treated with 25 μM H2O2 for an immediate fluorescence measurement. Plates were read every 50 s from 0 to 5 min for kinetic data analysis using a microplate reader (Synergy H1, BioTek), with excitation and emission wavelengths at 490 nm and 520 nm, respectively, and analyzed by Gen 5 version 2.08 (BioTek).

Data set [7] deals with RA/PMA-differentiated and 6-OHDA-lesioned SH-SY5Y human neuroblastoma cells. Description: Neuroprotection against 6-OHDA (MTT). In kind it is cell-based. The following applies: 1 µM. The protocol: (§1) In order to obtain a dopaminergic phenotype, the cells were treated with retinoic acid (RA)/phorbol 12-myristate 13-acetate (PMA) in a medium supplemented with RA (10 μM) for three days; then, the medium was removed and replaced with growth medium containing PMA (80 nM) for three days.
(§2) SP1–6 were dissolved in dimethyl sulfoxide (DMSO). SH-SY5Y cells were plated onto 96-well plates (2700 cell/well). The undifferentiated cells (UC) were grown for 24 h in normal medium and then incubated with seven different compounds at different concentrations (1, 10, and 100 µM). […] After 24 h and 48 h of incubation with or without the compounds, the both sets of cells (UC and DC) were assessed for viability by using a colorimetric assay of 3-[4,5-dimethylthiazol-2-yl]-2,5-diphenyltetrazolium bromide (MTT). The differentiated SH-SY5Y cells were treated with SP6 or LD compounds at 1 µM for 1 h and then exposed to 25, 50, 75, and 150 µM 6-OHDA. After a further 24 h of incubation, the cultures were assessed for viability using an MTT assay. For experiments with the neurotoxin H2O2, the differentiated SH-SY5Y cells were pretreated with SP6 or LD compounds at 1 µM for 24 h and then exposed to 25, 150, and 300 µM H2O2 for a further 24 h. Cell viability was detected using the MTT assay.

The test system of data set [8] is differentiated and H2O2-lesioned SH-SY5Y human neuroblastoma cells. Description: Neuroprotection against H2O2 (MTT). In kind it is cell-based. As to conditions: 1 µM. The method, then:
as §1, §2

Data set [9] can be described thus: Stability in human plasma. The data set is classed as in vitro ADME. As to conditions: for half-life at 1 mg/mL: human, 80% human plasma with 20% 0.02 M phosphate buffer. The method, then: Human plasma was purchased from 3H Biomedical (Uppsala, Sweden, Europe). SP stock solution was added to a mixture of 80% plasma and 20% of 0.02 M phosphate buffer (pH 7.4) at 37 °C to obtain a final drug concentration of 1 mg/mL. Samples of 100 μL were taken at various times, and 200 μL of MeOH containing 0.01 M HCl was used to stop the enzymatic activity. The samples were centrifuged for 5 min at 5000× g, and the resultant supernatants were filtered and analyzed using HPLC [17].

Where [10] appears, read: 24 h, all tested concentrations (1, 10, 100 µM).
Where [11] appears, read: 24 h before and during 24 h with 150 µM H2O2.
Setting [12] is: 24 h before and during 24 h with 300 µM H2O2.
Setting [13] is: 80% human plasma, 20% 0.02 M phosphate buffer pH 7.4, 37 °C.
Where [14] appears, read: pH 7.4, 80% human plasma, 20% 0.02 M phosphate buffer pH 7.4, 37 °C, read-out: t1/2.
Where [15] appears, read: pH 7.4, human plasma, read-out: half-life.

In general, logP refers to the decadic logarithm of the partition coefficient of the neutral form, usually between octanol and water. As for `N[C@@H](Cc1ccc(O)c(O)c1)C(=O)O` [LD, L-p-3,4-dihydroxyphenylalanine hydrochloride, reference compound], the logP in data set [1] is -2.46. Moreover, the Classification result in data set [2] is listed as “CNS^− (CNS^− (indicative of low BBB permeation): Pe (10^−6 cm/s) < 2)”. For the same compound, the Papp at 16 h in data set [2] came to 0.75 ×10⁻⁶ cm/s. The cytotoxic effect result in data set [3] (setting [10]) is “did not show cytotoxic effects”; in [3] (48 h, 100 µM), “toxic effect”; in [4] it was “detrimental effect”. Further, in data set [5], the superoxide anion level result was “seemed to increase it; also recorded: increase in superoxide anion levels”. Moreover, in data set [6], the “antioxidant activity (intracellular ROS)” value is on record as “significant antioxidant activity”. Moreover, the “protection against 6-OHDA toxicity (cell viability)” value in [7] (1 h before and during 24 h with 150 µM 6-OHDA) is listed as “partially counteract the toxic effect”. Besides, the “protection against H2O2 toxicity (cell viability)” value in data set [8] (setting [11]) and in data set [8] (setting [12]) was “ineffective” in each case.

Take `COC(=O)[C@@H](Cc1ccc(OC(C)=O)c(OC(C)=O)c1)NC(=O)CSSCC(=O)N[C@H](Cc1ccc(OC(C)=O)c(OC(C)=O)c1)C(=O)OC` [SP1, Methyl (2R)-3-[3,4-bis(acetyloxy)phenyl]-2-{2-[({[(2R)-3-[3,4-bis(acetyloxy)phenyl]-1-methoxy-1-oxopropan-2-yl]carbamoyl}methyl)disulfanyl]acetamido}propanoate]: the logP in [1] was -0.163. For the same compound, in [2], the Classification entry was “CNS^− (CNS^− (indicative of low BBB permeation): Pe (10^−6 cm/s) < 2)” and the Papp at 16 h worked out at 1.15 ×10⁻⁶ cm/s. In addition, the Kobs in data set [9] (setting [13]) is 0.024 (±0.001) min^−1. In addition, the half-life at 1 mg/mL in data set [9] (setting [14]) amounted to 0.48 h.

Take `COC(=O)[C@@H](Cc1ccc(OC(C)=O)c(OC(C)=O)c1)NC(=O)CCSSCCC(=O)N[C@H](Cc1ccc(OC(C)=O)c(OC(C)=O)c1)C(=O)OC` [SP2, Methyl (2R)-3-[3,4-bis(acetyloxy)phenyl]-2-{3-[(2-{[(2R)-3-[3,4-bis(acetyloxy)phenyl]-1-methoxy-1-oxopropan-2-yl]carbamoyl}ethyl)disulfanyl]propanamido}propanoate]: in data set [1], the log partition coefficient (logP) is 0.828. In addition, in data set [2], the Classification result was “CNS^− (CNS^− (indicative of low BBB permeation): Pe (10^−6 cm/s) < 2)” and the Papp at 16 h was found to be 1.82 ×10⁻⁶ cm/s. Besides, in data set [9] (setting [13]), the Kobs is given as 0.010 (±0.001) min^−1. Further, the half-life at 1 mg/mL in data set [9] (setting [14]) is 1.1 h.

Regarding `COC(=O)[C@@H](Cc1ccc(OC(C)=O)c(OC(C)=O)c1)NC(=O)[C@@H](CSSC[C@@H](NC(C)=O)C(=O)N[C@H](Cc1ccc(OC(C)=O)c(OC(C)=O)c1)C(=O)OC)NC(C)=O` [SP3, Methyl (2R)-3-[3,4-bis(acetyloxy)phenyl]-2-[(2S)-3-{[(2S)-2-{[(2R)-3-[3,4-bis(acetyloxy)phenyl]-1-methoxy-1-oxopropan-2-yl]carbamoyl}-2-acetamidoethyl]disulfanyl}-2-acetamidopropanamido]propanoate], the logP in data set [1] amounted to 1.07. Moreover, in data set [2], the “capacity to cross the BBB” value is listed as “possess the capacity to cross the BBB” and the Papp at 16 h is 3.1 ×10⁻⁶ cm/s. The Kobs in [9] (setting [13]) was 0.014 (±0.003) min^−1. For the same compound, in data set [9] (setting [14]), the half-life at 1 mg/mL was determined as 0.837 h.

`COC(=O)[C@@H](Cc1ccc(OC(C)=O)c(OC(C)=O)c1)NC(=O)C[Se][Se]CC(=O)N[C@H](Cc1ccc(OC(C)=O)c(OC(C)=O)c1)C(=O)OC` [SP4, Methyl (2R)-3-[3,4-bis(acetyloxy)phenyl]-2-{2-[({[(2R)-3-[3,4-bis(acetyloxy)phenyl]-1-methoxy-1-oxopropan-2-yl]carbamoyl}methyl)diselanyl]acetamido}propanoate]: in [1], the logP was -1.17. Further, in data set [2], the Classification entry is “CNS^+ (CNS^+ (indicative of high BBB permeation): Pe (10^−6 cm/s) > 4)” and the Papp at 16 h is 0.94 ×10⁻⁶ cm/s. Besides, in [9] (setting [13]), the Kobs result was “Immediate hydrolysis” and the t1/2 entry is “Immediate hydrolysis”.

In data set [1], `COC(=O)[C@@H](Cc1ccc(O)c(O)c1)NC(=O)[C@@H](CC[Se]C)NC(C)=O` [SP5, Methyl (2R)-3-(3,4-dihydroxyphenyl)-2-[(2R)-2-acetamido-4-(methylselanyl)butanamido]-propanoate] (Ac-[dSeMet]-[dDopa]-OMe) registered a logP of 0.51. Moreover, in data set [2], the “capacity to cross the BBB” value is “unable to completely cross the BBB”, the Classification entry is “CNS^− (CNS^− (indicative of low BBB permeation): Pe (10^−6 cm/s) < 2)” and the Papp at 16 h is 2.3 ×10⁻⁶ cm/s. In data set [9] (setting [13]), the Kobs is recorded as 0.005 (±0.0001) min^−1. Besides, in [9] (setting [14]), the half-life at 1 mg/mL amounted to 2.1 h. Besides, the half-life at 1 mg/mL in data set [9] (setting [15]) was greater than 2 h.

Take `COC(=O)[C@@H](Cc1ccc(OC(C)=O)c(OC(C)=O)c1)NC(=O)[C@@H](CC[Se]C)NC(C)=O` [SP6, Methyl (2R)-3-[3,4-bis(acetyloxy)phenyl]-2-[(2R)-2-acetamido-4-(methylselanyl)butanamido]-propanoate]: the logP in data set [1] was determined as 1.44. Also, the “capacity to cross the BBB” value in data set [2] was “possess the capacity to cross the BBB”. The Papp at 16 h in data set [2] was found to be 4.5 ×10⁻⁶ cm/s. In addition, the Kobs in data set [9] (setting [13]) is 0.004 (±0.0001) min^−1. For the same compound, the “stability in plasma” value in data set [9] (human plasma) is “resistant to the enzymatic hydrolyses by plasma esterases”. In addition, the half-life at 1 mg/mL is 2.89 h in data set [9] (setting [14]) and greater than 2 h in data set [9] (setting [15]). For the same compound, in data set [3] (setting [10]), the cytotoxic effect result is reported as “did not show cytotoxic effects”. Further, the superoxide anion level result in data set [5] was “significantly reduced the superoxide anion level”. Besides, in data set [6], the “antioxidant activity (intracellular ROS)” value is listed as “significant antioxidant activity; also recorded: able to reduce ROS levels”. The “protection against 6-OHDA toxicity (cell viability)” value in [7] (1 h before and during 24 h with 25, 50, 75, 150 µM 6-OHDA) is on record as “protective action against the toxin at all tested concentrations”. The “protection against H2O2 toxicity (cell viability)” value in data set [8] (setting [11]) is “effective in countering the toxic effect”; in [8] (setting [12]), “partially countered”.
